Laboratory results from patent publication US20080153791A1, “11Beta -Hydroxysteroid Dehydrogenases” (onpharm GmbH, priority 2005, published 2008).
Like-named read-outs stand apart in the source and are kept apart here.

Experiments:
[1] = biological target: T1, human 11β-HSD2 (Homo sapiens, UniProt P80365); test: 11β-HSD2 oxidase activity (cortisol to cortisone) in lysates of stably transfected HEK-293 cells; type: biochemical; conditions: for remaining activity at 20 µM: read-out: 11β-HSD2 % of control
T1 construct: expressed in transfected cells
T1 sequence (P80365 1-405): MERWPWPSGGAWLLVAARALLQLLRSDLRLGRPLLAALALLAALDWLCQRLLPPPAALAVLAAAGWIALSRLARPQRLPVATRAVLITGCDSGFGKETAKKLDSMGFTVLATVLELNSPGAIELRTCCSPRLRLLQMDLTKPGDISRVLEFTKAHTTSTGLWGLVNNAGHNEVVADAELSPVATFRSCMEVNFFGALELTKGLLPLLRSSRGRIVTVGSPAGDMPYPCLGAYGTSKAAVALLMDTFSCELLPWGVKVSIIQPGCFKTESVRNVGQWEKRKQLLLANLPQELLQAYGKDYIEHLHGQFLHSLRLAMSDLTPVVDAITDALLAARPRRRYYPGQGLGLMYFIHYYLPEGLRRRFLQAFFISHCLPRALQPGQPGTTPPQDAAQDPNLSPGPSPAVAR
Method: (§1) Cells were grown in 10 cm dishes to 80% confluence and incubated for 16 h in steroid-free medium (charcoal-treated fetal calf serum (FCS) from HyClone, Logan, Utah). Cells were rinsed once with phosphate-buffered saline (PBS), detached and centrifuged for 3 min at 150×g. The supernatant was removed and the cell pellet quick-frozen in a dry-ice ethanol bath. At the day of experiment, cell pellets were resuspended in buffer TS2 (100 mM NaCl, 1 mM EGTA, 1 mM EDTA, 1 mM MgCl2, 250 mM sucrose, 20 mM Tris-HCl, pH 7.4), sonicated and activities determined immediately. The rate of conversion of cortisol to cortisone or the reverse reaction was determined in 96-well optical PCR reaction plates (Applied Biosystems, Foster City, Calif.) in a final volume of 22 μl, and the tubes were capped during the reaction to avoid evaporation.
Reactions were initiated by simultaneously adding 10 μl of cell lysate and 12 μl of TS2 buffer containing the appropriate concentration of the inhibitory compound to be tested, NAD^+, 30 nCi of [1,2,6,7-^3H]-cortisol and unlabeled cortisol. […] Stock solutions of the inhibitors in methanol or DMSO were diluted in TS2 buffer to yield the appropriate concentrations, whereby the concentration of methanol or DMSO in the reactions were kept below 0.1%. Control reactions with or without 0.1% of the solvent were performed. Incubation was at 37° C. for 10 min with shaking, reactions were terminated by adding 10 μl of stop solution containing 2 mM of unlabeled cortisol and cortisone dissolved in methanol. The conversion of radiolabeled cortisol was determined by separation of cortisol and cortisone using TLC and a solvent system of 9:1 (v/v) chloroform:methanol, followed by scintillation counting.
(§2) Enzyme kinetics were analyzed by non-linear regression using Data Analysis Toolbox (MDL Information Systems Inc.) assuming first-order rate kinetics. Data represent mean ±SD of four to five independent experiments.
(§3) Assay with 20 μM of the corresponding compound in the reaction mixture, added simultaneously with the substrate:
(§4) Determination of IC50 values, using 7 different inhibitor concentrations at factor 2 intervals: […]

[2] = biological target: T2, human 11β-HSD1 (Homo sapiens, UniProt P28845); test: 11β-HSD1 reductase activity (cortisone to cortisol) in lysates of stably transfected HEK-293 cells; type: biochemical; conditions: for remaining activity at 20 µM: 20 μM compound, 100 nM cortisone, HEK-293 cell lysates, read-out: 11β-HSD1 % of control; for IC50: cell lysates
T2 construct: expressed in transfected cells
T2 sequence (P28845 whole entry): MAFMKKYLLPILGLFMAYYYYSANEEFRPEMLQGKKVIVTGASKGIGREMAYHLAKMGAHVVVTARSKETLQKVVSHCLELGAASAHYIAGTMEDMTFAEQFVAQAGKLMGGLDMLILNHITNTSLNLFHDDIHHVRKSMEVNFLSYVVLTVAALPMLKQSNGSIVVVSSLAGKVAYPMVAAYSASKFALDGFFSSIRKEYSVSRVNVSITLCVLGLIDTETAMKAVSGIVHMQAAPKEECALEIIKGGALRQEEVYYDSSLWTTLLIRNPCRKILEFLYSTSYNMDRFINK
Method: as §1
Reactions were initiated simultaneously by adding 10 μl of cell lysate and 12 μl of TS2 buffer containing the appropriate concentration of the inhibitory compound to be tested, NADPH, 30 nCi of [1,2,6,7-^3H]-cortisone and unlabeled cortisone, whereby final concentrations were 400 μM NADPH and 100 nM cortisone. Activities were determined immediately after cell disruption by measuring the conversion of radiolabeled cortisone to cortisol for 10 min.
as §2, §3, §4

[3] = 20 μM compound, 25 nM cortisol, HEK-293 cell lysates
[4] = cell lysates, 7 inhibitor concentrations at factor 2 intervals, experiment 2, read-out: IC 50 11β-HSD2, determination 2
[5] = cell lysates, 7 inhibitor concentrations at factor 2 intervals, experiment 3, read-out: IC 50 11β-HSD2, determination 3

SMILES	remaining activity at 20 µM [1, 3] [%]	remaining activity at 20 µM [2] [%]	also measured
CCN(CC(O)COc1cc(C)c(Cl)c(C)c1)S(=O)(=O)O (stereo not drawn) [BNW1]	96.8	102	–
COc1ccc(OC)c(C2C(C(=O)c3ccc(Br)cc3)=C(O)C(=O)N2CCCn2ccnc2)c1 (stereo not drawn) [BNW2]	78	78.8	–
Cc1n[nH]c(O)c1C(c1ccc(-c2ccc(Cl)c(C(=O)O)c2)o1)c1c(O)n[nH]c1C [BNW5]	97.5	69.8	–
CC1(C)[C@@H](OCO)CC[C@]2(C)[C@H]3C(=O)C=C4C5=C[C@@](C)(C(=O)O)CC[C@]5(C)CC[C@@]4(C)[C@]3(C)CC[C@@H]12 [BNW15]	56.9	50.4	–
CCOc1ccc(C2c3cc(OCC)c(OCC)cc3CC(=O)N2c2ccc(C(=O)O)cc2)cc1OCC (stereo not drawn) [BNW17]	120	88.2	–
CSc1nc2cc(C)c(C)cc2n1C1OC(CO)C(O)C1O (stereo not drawn) [BNW18]	82.8	92	–
COCCN1C(=O)C(O)=C(C(=O)c2ccc(OC)c(C)c2)C1c1ccc(C)cc1 (stereo not drawn) [BNW20]	121	46.8	–
COc1ccc(C(=O)C2=C(O)C(=O)N(CCCn3ccnc3)C2c2ccccc2)cc1Cl (stereo not drawn) [BNW21]	122	48.9	–
CC1(C)[C@@H](N)CC[C@]2(C)[C@H]3C(=O)C=C4[C@@H]5C[C@@](C)(C(=O)O)CC[C@]5(C)CC[C@@]4(C)[C@]3(C)CC[C@@H]12 [BNW25, (2S,4aS,6aS,6bR,8aR,10S,12aS,12bR,14bR)-10-Amino-2,4a,6a,6b,9,9,12a-heptamethyl-13-oxo-1,2,3,4,4a,5,6,6a,6b,7,8,8a,9,10,11,12,12a,12b,13,14b-icosahydro-picene−2-carboxyiic acid]	–	2.9	IC50 [1, 4]: 54.6 nM; IC50 [1, 5]: 64.9 nM; remaining activity at 20 µM [1]: 13.9%; IC50 ([1]; read-out: IC 50 11β-HSD2, Mean): 59.7 nM; IC50 ([2]; mean of determinations 1-3, read-out: IC 50 11β-HSD1, Mean): 172 nM
COc1ccc(CNC(=O)C2CCC(=O)N2C2CCCC2)cc1OC (stereo not drawn) [BNW26]	137	94.1	–
COc1cc2c(cc1OC)C(COc1ccc([N+](=O)[O-])cc1)N(C(=O)c1ccc(Cl)c([N+](=O)[O-])c1)CC2 (stereo not drawn) [BNW27]	126	78.6	–
CCC(Sc1nnc(-c2ccc(OC)c(OC)c2)c(-c2ccc(OC)c(OC)c2)n1)C(=O)N(CC)CC (stereo not drawn) [BNW30]	140	48.4	–

Continued, in another order:

remaining activity at 20 µM [1, 3] [%]	remaining activity at 20 µM [2] [%]	SMILES	also measured
53.6	60.3	CCCCOc1ccc(C(=O)C2=C(O)C(=O)N(CCOC)C2c2cccnc2)c(C)c1 (stereo not drawn) [BNW3]	–
95	82.2	Cc1nn(CC(=O)Nc2sc(C)c(C)c2C(N)=O)c(C)c1[N+](=O)[O-] [BNW4]	–
145	79.6	COc1ccc(C(=O)NCc2cccc(Cl)c2Cl)c(C(F)(F)F)c1 [BNW6]	–
103	41.7	NC(=O)c1c(NC(=O)C2CC=CCC2C(=O)O)sc2c1CCCCC2 (stereo not drawn) [BNW8]	–
77.4	30.7	COCCC1C(=O)C(O)=C(C(=O)c2ccc(OC)c(C)c2)C1c1ccc(Cl)cc1Cl (stereo not drawn) [BNW9]	–
121	70.1	Cc1cccc(C)c1C1C(SCC(=O)Nc2c(Cl)cccc2Cl)=NN=C1c1cccc([S+]([O-])N(C)C)c1 (stereo not drawn) [BNW11]	–
132	85.4	CCN(CC)S(=O)(=O)c1ccc(Cl)c(C(=O)Nc2nc3ccc(S(C)(=O)=O)cc3s2)c1 [BNW12]	–
14.4	3.9	COC(=O)[C@@]1(C)CC[C@]2(C)CC[C@]3(C)C(=CC(=O)[C@@H]4[C@@]5(C)CC[C@H](Oc6ccccc6C(=O)O)C(C)(C)[C@@H]5CC[C@]43C)[C@@H]2C1 [BNW13, (2S,4aS,6aS,6bR,8aR,10S,12aS,12bR,14bR)-10-(2-Carboxy-phenoxy)-2,4a,6a,6b,9,9,12a-heptamethyl-13-oxo-1,2,3,4,4a,5,6,6a,6b,7,8,8a,9,10,11,12,12a,12b,13,14b-icosahydro-picene-2-carboxylic acid methyl ester]	IC50 [1, 4]: 263 nM; IC50 [1, 5]: 299 nM; IC50 ([2]; 7 inhibitor concentrations at factor 2 intervals, experiment 1, read-out: IC 50 11β-HSD1, determination 1): 666 nM; IC50 ([2]; 7 inhibitor concentrations at factor 2 intervals, experiment 2, read-out: IC 50 11β-HSD1, determination 2): 756 nM; IC50 ([2]; 7 inhibitor concentrations at factor 2 intervals, experiment 3, read-out: IC 50 11β-HSD1, determination 3): 652 nM
104	41.3	CCOc1ccc(C2C(C(=O)c3ccc(Cl)cc3)=C(O)C(=O)N2CCCn2ccnc2)cc1OCC (stereo not drawn) [BNW22]	–
133	85.1	COc1cccc(/C=N/NC(=O)CSCc2ccccc2C)c1OC [BNW23]	–
137	76.7	COc1cc(/C=N/NC(=O)CSc2nc3ccccc3n2Cc2ccc(C)cc2)cc(OC)c1OC(C)=O [BNW28]	–
115	75.3	CCN(CC)S(=O)(=O)c1ccc(OC)c(-c2nnc(-c3cc(S(=O)(=O)N(CC)CC)ccc3OC)o2)c1 [BNW29]	–
